# Where “and” joins values, the source holds several entries; their conditions need not be identical. Equal entries are not always repeated.
# Columns and labels:
# Rattus norvegicus [1] = conditions: for NOEL / LOEL: Hershberger
# Mus musculus = conditions: for LD50: acute
# Rattus norvegicus [2] = conditions: for LD50 / LC50: acute
# Rattus norvegicus [3] = conditions: subchronic; duration: 13 weeks; oral; diet; M/F; Fischer 344; Deaths + Clinical Observation: Soft stool, Diarrhea Redness around anus + Body Weight Changes: decrease + Food Consumption: decrease + Blood…
# [4] = chronic, duration: 103 weeks, inhalation, Fischer 344
# [5] = duration: 10 days, injection, subcutaneous, Fischer 344, active + Antiandrogenic + anti-androgenic
# [6] = subchronic, duration: 6 weeks, oral, gavage, F, B6C3F1
# [7] = subchronic, duration: 6 weeks, oral, gavage, M, B6C3F1
# [8] = subchronic, duration: 6 weeks, oral, gavage, F, Osborne-Mendel
# [9] = subchronic, duration: 6 weeks, oral, gavage, M, Osborne-Mendel
# [10] = repeat dose other, inhalation, Fischer 344
# [11] = short-term, duration: 14 days, oral, diet, B6C3F1
# [12] = subchronic, duration: 13 weeks, oral, diet, B6C3F1
# [13] = chronic, duration: 103 weeks, oral, diet, Fischer 344
# [14] = short-term, duration: 14 days, oral, diet, Fischer 344
# [15] = subchronic, duration: 13 weeks, oral, diet, Fischer 344
# [16] = duration: 10 days, injection, subcutaneous, Sprague-Dawley, active + Androgenic + androgenic
# [17] = duration: 10 days, oral, gavage, Wistar, active + Androgenic + androgenic
# [18] = duration: 10 days, oral, gavage, wistar, active + Androgenic + androgenic
smiles,measurement,setting,value
Cl.N#Cc1ccc(C2CCCc3cncn32)cc1 (configuration not stated),NOEL,"Rattus norvegicus [1]; duration: 7 days, oral, gavage, Wistar, inactive + Negative + anti-androgenic + high dose decreased body wt but no effect on PPS or AST",6 mg/kg-day
"CCCCCCCCCCCCCCC1CO1 (configuration not stated) [1,2-Epoxyhexadecane]",LOAEL,"Mus musculus; subchronic, duration: 13 weeks, dermal, B6C3F1",125 mg/kg-day
same,LD50,"Rattus norvegicus [2]; dermal, occlusive, Sprague-Dawley",2000 mg/kg
same,LD50,"Rattus norvegicus [2]; oral, gavage, Sprague-Dawley",> 5000 mg/kg
same,LOAEL,"Rattus norvegicus [2]; subchronic, duration: 90 days, dermal, Fischer 344",125 mg/kg-day
CCCCCCCCCCCCCCCCCCN [1-Octadecanamine],LD50,"Mus musculus; oral, gavage",1000 mg/kg
same,LD50,"Rattus norvegicus [2]; oral, gavage",1000 mg/kg and > 2000 mg/kg
same,LD50,"Rattus norvegicus [2]; oral, gavage, Sprague-Dawley",4800 mg/kg
same,LD50,"Rattus norvegicus [2]; oral, gavage, Wistar",≥ 2000 mg/kg
C=CC [1-Propene],NOAEL,"Mus musculus; chronic, duration: 14 weeks, inhalation, B6C3F1",17200 mg/m3
same,NOAEL,"Mus musculus; chronic, duration: 78 weeks, inhalation, Swiss",≥ 8610 mg/m3
same,NOAEL,"Mus musculus; chronic, duration: 103 weeks, inhalation, B6C3F1",≥ 17200 mg/m3
same,LC50,"Rattus norvegicus [2]; inhalation, Sprague-Dawley",> 112000 mg/m3
same,NOAEL,"Rattus norvegicus [2]; chronic, duration: 14 weeks, inhalation, Fischer 344",17200 mg/m3
same,LOAEL,Rattus norvegicus [2]; [4],17200 mg/m3
same,NOAEL,Rattus norvegicus [2]; [4],8610 mg/m3
same,NOAEL,"Rattus norvegicus [2]; chronic, duration: 104 weeks, inhalation, Sprague-Dawley",≥ 8610 mg/m3
same,NOAEL,"Rattus norvegicus [2]; short-term, duration: 4 weeks, inhalation, Fischer 344",17200 mg/m3
"O=C(c1ccc(O)cc1)c1ccc(O)cc1O [2,4,4'-Trihydroxybenzophenone]",LOEL,Rattus norvegicus [1]; [5],300 mg/kg-day
same,NOEL,Rattus norvegicus [1]; [5],100 mg/kg-day
"O=S1(=O)CC=CC1 [2,5-Dihydrothiophene 1,1-dioxide]",LOAEL,Mus musculus; [6],316 mg/kg-day
same,NOAEL,Mus musculus; [6],178 mg/kg-day
same,LOAEL,Mus musculus; [7],1000 mg/kg-day
same,NOAEL,Mus musculus; [7],562 mg/kg-day
same,LD50,"Rattus norvegicus [2]; oral, gavage, Sprague-Dawley",2880 mg/kg
same,NOAEL,"Rattus norvegicus [2]; reproduction developmental, duration: 28 days, oral, gavage, Crj:CD, generation: F0",75 mg/kg-day
same,NOAEL,"Rattus norvegicus [2]; reproduction developmental, duration: 28 days, oral, gavage, Crj:CD, generation: F1",25 mg/kg-day
same,LOAEL,Rattus norvegicus [2]; [8],178 mg/kg-day
same,NOAEL,Rattus norvegicus [2]; [8],100 mg/kg-day
same,LOAEL,Rattus norvegicus [2]; [9],562 mg/kg-day
same,NOAEL,Rattus norvegicus [2]; [9],316 mg/kg-day
C=CC(=O)OCCN(C)C [2-(Dimethylamino)ethyl acrylate],LD50,"Mus musculus; injection, Intraperitoneal, NMRI",200 mg/kg
same,LC50,"Rattus norvegicus [2]; Inhalation, Sprague-Dawley",0.066 mg/L
same,LD50,Rattus norvegicus [2]; dermal,891 mg/kg
same,LD50,"Rattus norvegicus [2]; dermal, semiocclusive, Sprague-Dawley",419 mg/kg
same,LC50,Rattus norvegicus [2]; inhalation,0.22 mg/L and < 0.352 mg/L
same,LC50,"Rattus norvegicus [2]; inhalation, Wistar",0.972 mg/L
same,LD50,"Rattus norvegicus [2]; injection, Intraperitoneal",183 mg/kg
same,LD50,Rattus norvegicus [2]; oral,533 mg/kg
same,NOAEL,"Rattus norvegicus [2]; developmental, oral, gavage, Crj:CD",30 mg/kg-day
same,NOAEL,"Rattus norvegicus [2]; reproduction developmental, duration: 43 days, oral, gavage, Sprague-Dawley",20 mg/kg-day
same,NOAEL,"Rattus norvegicus [2]; reproduction developmental, duration: 43 days, oral, gavage, Sprague-Dawley, generation: F0",100 mg/kg-day
same,NOAEL,"Rattus norvegicus [2]; subchronic, duration: 13 weeks, oral, gavage, Sprague-Dawley",10 mg/kg-day
"Clc1ccc(Cl)c(C(Cl)(Cl)Cl)n1 [3,6-Dichloro-2-(trichloromethyl)pyridine]",NOAEL,"Mus musculus; repeat dose other, inhalation, B6C3F1",3.47 mg/m3
same,LD50,"Rattus norvegicus [2]; oral, gavage",≥ 1000 mg/kg and ≤ 2000 mg/kg
same,LOAEL,Rattus norvegicus [2]; [10],14.7 mg/m3
same,NOAEL,Rattus norvegicus [2]; [10],3.47 mg/m3
CCCCN(CCCC)c1cccc(O)c1 [3-(Dibutylamino)phenol],NOEL,"Rattus norvegicus [1]; duration: 10 days, oral, gavage, Wistar, inactive + Negative + Negative + anti-androgenic + negative",300 mg/kg-day
"Nc1ccc(C=Cc2ccc(N)cc2S(=O)(=O)[O-])c(S(=O)(=O)[O-])c1.[Na+].[Na+] [4,4'-Diamino-2,2'-stilbenedisulfonic acid, disodium salt]",LOAEL,Mus musculus; [11],50000 ppm
same,NOAEL,Mus musculus; [11],25000 ppm
same,LOAEL,Mus musculus; [12],4920 mg/kg-day
same,NOAEL,Mus musculus; [12],2460 mg/kg-day
same,LD50,"Rattus norvegicus [2]; oral, gavage, Wistar",> 5000 mg/kg
same,LOAEL,Rattus norvegicus [2]; [13],1950 mg/kg-day
same,NOAEL,Rattus norvegicus [2]; [13],975 mg/kg-day
same,LOAEL,Rattus norvegicus [2]; [14],50000 ppm
same,NOAEL,Rattus norvegicus [2]; [14],25000 ppm
same,LOAEL,Rattus norvegicus [2]; [15],4800 mg/kg-day
same,NOAEL,Rattus norvegicus [2]; [15],2400 mg/kg-day
same,NOEL,Rattus norvegicus [3],< 600 mg/kg-day
"NNS(=O)(=O)c1ccc(Oc2ccc(S(=O)(=O)NN)cc2)cc1 [4,4'-Oxybis(benzenesulfohydrazide)]",LD50,"Mus musculus; injection, Intraperitoneal",> 5000 mg/kg
same,LD50,Rattus norvegicus [2]; oral,2300 mg/kg
same,LD50,"Rattus norvegicus [2]; oral, albino",> 5200 mg/kg
same,LOAEL,"Rattus norvegicus [2]; chronic, duration: 4 months, oral, gavage",36 mg/kg-day
O=[N+]([O-])c1ccc(O)cc1 [4-Nitrophenol],LEL,"Rattus norvegicus [1]; uterotrophic, duration: 7 days, injection, subcutaneous, Active",10 mg/kg-day
C[C@]12C=CC3=C4CCC(=O)C=C4CC[C@H]3[C@@H]1CC[C@@H]2O [17beta-Trenbolone],LOEL,Rattus norvegicus [1]; [16],200 mg/kg-day
same,NOEL,Rattus norvegicus [1]; [16],100 mg/kg-day
same,LOEL,"Rattus norvegicus [1]; duration: 10 days, oral, gavage, Sprague-Dawley, androgenic",40 mg/kg-day
same,LOEL,Rattus norvegicus [1]; [17],40 mg/kg-day
same,NOEL,Rattus norvegicus [1]; [17],8 mg/kg-day
same,LOEL,Rattus norvegicus [1]; [18],40 mg/kg-day
same,NOEL,Rattus norvegicus [1]; [18],8 mg/kg-day
